The values below come from patent US20260273028A1, “PEROXIDASE COMPOSITIONS CONTAINING IMPROVED ENHANCING AGENTS” (FLEN HEALTH PHARMA NV, priority 2022, published 2026).

Series [1] concerns Aspergillus niger ATCC®16404™. As to the kind of experiment: MBC determination, broth microdilution with CFU enumeration. The series is classed as cell-based. The note with it: A. niger. As to the method:
(§1) The minimal bactericidal concentration (MBC) is defined as the lowest concentration of an antimicrobial agent that results in a complete killing of the microbial population (determined via standard CFU enumeration techniques) after overnight incubation. This endpoint measurement is used, together with the MIC (see above), to define the microbial susceptibility towards an antimicrobial agent. Here, the antimicrobial agent is a combination of the natural enzymes GOX+LPO.
(§2) To determine the MBC of the described combinations, a classical broth microdilution assay combined with standard CFU enumeration techniques was used to determine the susceptibility of a series of microbes commonly detected in infected wounds, including (a) the Gram-positive bacterium Staphylococcus aureus ATCC® 6538™ (results shown below), (b) the Gram-negative bacterium Pseudomonas aeruginosa ATCC®9027™ (results shown below), (c) the yeast Candida albicans ATCC®10231™ (results shown below), and (d) the fungus Aspergillus niger ATCC®16404™ (results shown below). In brief, the broth microdilution assay was set up as previously described (see 2.1). After incubation, the MBC was determined by investigating the presence of viable microorganisms at the MIC and following higher concentrations (MICx2, MICx4, and so on) using standard CFU enumeration techniques. For each combination evaluated, this test was repeated at least 5 times. The collected data were further analyzed in MS Excel. Mean concentration data (expressed as log CFU/ml) were visualized in a table format in which the MBC was highlighted.

Series [2] has as its system Pseudomonas aeruginosa ATCC®9027™. The series is described as above. The series is classed as cell-based. The conditions noted are these: P. aeruginosa. As to the method:
as §1, §2

Series [3] has as its system Aspergillus niger ATCC®16404™. As to the kind of experiment: Absolute microbial counts in function of enzyme solution concentration. The series is classed as cell-based. The note with it: 0.005%-0.000156% (v/v) GOX+LPO. An excerpt: (§3) Absolute microbial counts in function of concentration of the antimicrobial agent tested are useful to monitor the bactericidal and fungicidal efficacy of that agent.
(§4) To determine the absolute number of live microorganisms in function of different enzyme solution concentrations tested, a classical broth microdilution assay combined with standard CFU enumeration techniques was used to determine the susceptibility of a series of microbes commonly detected in infected wounds, including (a) the Gram-positive bacterium Staphylococcus aureus ATCC® 6538™ (results shown below), (b) the Gram-negative bacterium Pseudomonas aeruginosa ATCC®9027™ (results shown below), (c) the yeast Candida albicans ATCC®10231™ (results shown below), and (d) the fungus Aspergillus niger ATCC®16404™ (results shown below). In brief, the broth microdilution assay was set up as previously described (see 2.1). After incubation, the absolute microbial count at the MIC and following higher concentrations (MICx2, MICx4, and so on) was determined using standard CFU enumeration techniques. For each combination evaluated, this test was repeated at least 5 times. The collected data were further analyzed in MS Excel and expressed as log CFU/ml. Mean results were plotted in function of enzyme solution concentration.

Series [4] has as its system Pseudomonas aeruginosa ATCC®9027™. The series is described as above. The note with it: for reduction in absolute P. aeruginosa counts compared to reference and guaiacol solution: 0.005%-0.0000391% (v/v) GOX+LPO. The series is classed as cell-based.
Source text: as §3, §4

The subject of the next series is S. aureus (ATCC®6538™). As to the kind of experiment: Microbial challenge testing in alginogel with GOX+LPO. The series is classed as cell-based. The conditions noted are these: for antimicrobial activity of enhancing candidate only against S. aureus: alginogel without enzymes, highest concentration tested; for reduction in absolute S. aureus counts compared to reference (enzymes only): alginogel, 0.0075% GOX+LPO; for reduction in absolute S. aureus counts compared to guaiacol in the same concentration: alginogel with GOX+LPO, enhancer 0.0005%. How it is done:
To determine the ability of an antimicrobial agent to elicit an antimicrobial preserving efficacy in a gel environment, a microbiological challenge test can be performed. Here, the antimicrobial agent is a combination of the natural enzymes GOX+LPO. […] Microbial challenge testing was performed according to the method described in the European Pharmacopoeia current version chapter 5.1.3 ‘Efficacy of antimicrobial preservation’, but with adapted time points (0, 10, 20, 30, 40, 50, 60, 70 and 80 min instead of 0, 2, 7, 14 and 28 days). In brief, for every enhancing agent to be evaluated, a lab-scale alginogel (based on the Flaminal® formulation, but without the original enhancer guaiacol) including 0.0075% GOX+LPO (1:1) was prepared according to standard practices. Enhancing agents were added to the alginogel in a final concentration ranging from 0.01 to 0,00025% (v/w). As a reference, an alginogel including 0.0075% GOX+LPO (1:1) without the addition of any enhancing agent was included (designated as: enzymes only). As a control, an alginogel without both GOX+LPO (1:1) enzyme solution and enhancing agent (designated as: empty gel) as well as an alginogel only containing the enhancing agent only (designated as: enhancing candidate only) were included. After preparation, a homogenous sample of 10 g was transferred into a 50 ml conical tube for each alginogel to be evaluated and microorganism to be tested. For each test microorganism, including S. aureus (ATCC®6538™), P. aeruginosa (ATCC®9027™), C. albicans (ATCC®10231™) and A. niger (ATCC®16404 ™), a microbial suspension of about 10^8 CFU/ml was prepared in sterile diluent (buffered sodium chloride-peptone solution). Then, the 50 ml conical tubes containing the alginogel samples to be evaluated were inoculated with 100 μl of the designated inoculum. At the start (time point 0) and after 0, 10, 20, 30, 40, 50, 60, 70 and 80 min, the number of viable microorganisms per gram product (expressed as CFU/g) was determined by transferring a sample of 0.5 g of the product into a 15 ml conical tube containing 4.5 ml of sterile diluent and applying general dilution and plate count techniques. For each combination evaluated, this test was repeated at least 1-3 times. The collected data were further analyzed in MS Excel. Mean absolute counts (expressed as log CFU/g) were visualized in a graph.
The purpose of the hereby described experiment was to compare the efficacy of antimicrobial activity enhancement of the GOX+LPO (1:1) enzyme combination by ethanolamine and proline in a microbial challenge test using S. aureus. The test was set up as described in the section on ‘challenge testing’ in Example 2.4. The test was repeated at least 3 times.
The purpose of the hereby described experiment was to compare the efficacy of antimicrobial activity of the GOX+LPO (1:1) enzyme combination in the presence of potassium chloride/potassium bromide and potassium iodide. A microbial challenge test using S. aureus was performed. The test was set up as described in the section on ‘challenge testing’ in Example 2.4.

For series [5] the following is noted: exemplary values; cited from earlier work.
The mark [6] stands for this setting: enhancer 0,1%, 0,005%-0.000625% (v/v) GOX+LPO.
Setting [7] is: enhancer 1%, 0,005%-0.000156% (v/v) GOX+LPO.

For the compound `NC(=O)C[C@H](N)C(=O)O` [Asparagine, asparagine], the “MBC: GOX+LPO enzyme solution needed” value in series [1] (enhancer 1%-0.05%) is reported as 0.000156 % (v/v); in series [2] (enhancer 0,1%) it was 0.000625 % (v/v); in series [2] (enhancer 1%), 0.000156 % (v/v). Moreover, the “increase in MBC compared to reference” value in series [1] (enhancer 1%-0.05%) came out at 2 ×; in series [2] (enhancer 0,1%), 2 ×; in series [2] (enhancer 1%), 8 ×. The “reduction in absolute A. niger counts compared to reference” value (“reduction in absolute A. niger counts” below) in series [3] (enhancer 1-0.05%) was “stronger reduction”. For the same compound, the “reduction in absolute P. aeruginosa counts compared to reference” value in series [4] (setting [6]) and in series [4] (setting [7]) was “stronger reduction” in each case. In addition, in the series with S. aureus (ATCC®6538™), the “antimicrobial activity of enhancing candidate only against S. aureus” value (from here on “antimicrobial activity”) is reported as “no antimicrobial activity”. In addition, the “reduction in absolute S. aureus counts compared to reference (enzymes only)” value (“reduction … (enzymes only)” below) in the series with S. aureus (ATCC®6538™) (enhancer 0.0025%) is reported as “immediate entire reduction”; in the series with S. aureus (ATCC®6538™) (enhancer 0,00125%), “faster complete reduction”. In addition, the “LogP (octanol/water partition coefficient)” value in series [5] is “LogP = −3.82”.

On to `NC(=O)CC[C@H](N)C(=O)O` [Glutamine, glutamine], for which the entries for the “MBC: GOX+LPO enzyme solution needed” value in series [1] (enhancer 1%-0.01%), in series [2] (enhancer 0,1%) and in series [2] (enhancer 1%) were 0.000156 % (v/v), 0.000625 % (v/v) and 0.000156 % (v/v), respectively. For the same compound, the “increase in MBC compared to reference” value is listed as 2 × in series [1] (enhancer 1%-0.01%), 2 × in series [2] (enhancer 0,1%) and 8 × in series [2] (enhancer 1%). The “reduction in absolute A. niger counts” value in series [3] (enhancer 1-0.01%) was “stronger reduction”. Further, the “reduction in absolute P. aeruginosa counts compared to reference” value in series [4] (setting [6]) and in series [4] (setting [7]) was “stronger reduction” in each case. For the same compound, in the series with S. aureus (ATCC®6538™), the “reduction in absolute S. aureus counts compared to guaiacol in the same concentration” value (from here on “reduction … in the same concentration”) is listed as “faster complete reduction”. Also, the “antimicrobial activity” value in the series with S. aureus (ATCC®6538™) was “no antimicrobial activity”. Besides, the “reduction … (enzymes only)” value is listed as “faster complete reduction” with S. aureus (ATCC®6538™) (enhancer 0.00125-0.0005%) and “immediate entire reduction” in the series with S. aureus (ATCC®6538™) (enhancer 0.0025%). In series [5], the “LogP (octanol/water partition coefficient)” value is “LogP = −3.15”.

With `CC[C@H](C)[C@H](N)C(=O)O` [Isoleucine, isoleucine], the “MBC: GOX+LPO enzyme solution needed” value is 0.000156 % (v/v) in series [1] (enhancer 1%-0.005%), 0.000625 % (v/v) in series [2] (enhancer 0,1%) and 0.000156 % (v/v) in series [2] (enhancer 1%). Moreover, the “increase in MIC compared to reference (MBC section)” value in series [1] (enhancer 1%-0.005%) was determined as 2 ×. The “increase in MBC compared to reference” value in series [2] (enhancer 0,1%) is reported as 2 ×; in series [2] (enhancer 1%), 8 ×. Besides, in series [3] (enhancer 1-0.005%), the “reduction in absolute A. niger counts” value was “stronger reduction”. Besides, the “reduction in absolute P. aeruginosa counts compared to reference” value in series [4] (setting [6]) and in series [4] (setting [7]) was “stronger reduction” throughout. Moreover, the “reduction … in the same concentration” value in the series on S. aureus (ATCC®6538™) was “faster complete reduction”. The “antimicrobial activity” value in the series on S. aureus (ATCC®6538™) is “no antimicrobial activity”. For the same compound, the “reduction … (enzymes only)” value is recorded as “faster complete reduction” with S. aureus (ATCC®6538™) (enhancer 0.00125-0.0005%) and “immediate entire reduction” in the series with S. aureus (ATCC®6538™) (enhancer 0.0025%). Further, the “LogP (octanol/water partition coefficient)” value in series [5] is reported as “LogP = −1.72”.

For the compound `O=C(O)[C@@H]1CCCN1` [Proline, proline], the “MBC: GOX+LPO enzyme solution needed” value was 0.000156 % (v/v) in series [1] (enhancer 1%-0.01%), 0.000625 % (v/v) in series [2] (enhancer 0.0025-0.00125%) and 0.000625 % (v/v) in series [2] (enhancer 0.01-0.005%). Further, in series [1] (enhancer 1%-0.01%), the “increase in MBC compared to reference” value was 2 ×. In addition, the “increase in MBC compared to reference or guaiacol solution” value in series [2] (enhancer 0.0025-0.00125%) and in series [2] (enhancer 0.01-0.005%) was 2 × throughout. Further, the “reduction in absolute A. niger counts” value in series [3] (enhancer 1-0.01%) is “stronger reduction”. Also, the “reduction in absolute P. aeruginosa counts compared to reference and guaiacol solution” value in series [4] (enhancer 0.0025-0.00125%) and in series [4] (enhancer 0.01-0.001%) was “stronger reduction” in each case. Moreover, the “exposure time to complete reduction of absolute S. aureus counts (average)” value with S. aureus (ATCC®6538™) (alginogel with GOX+LPO (1:1), enhancer 0,0005% (v/v)) is reported as 60 min. In addition, the “reduction … in the same concentration” value in the series with S. aureus (ATCC®6538™) was “faster complete reduction”. The “antimicrobial activity” value with S. aureus (ATCC®6538™) is given as “no antimicrobial activity”. In addition, the “reduction … (enzymes only)” value in the series with S. aureus (ATCC®6538™) (enhancer 0.00125-0.0005%) was “faster complete reduction”; in the series with S. aureus (ATCC®6538™) (enhancer 0.0025%) it was “immediate entire reduction”. Moreover, the “LogP (octanol/water partition coefficient)” value in series [5] is on record as “LogP = −2.54”.
